Laboratory results: patent US20130244876A1, “Synergistic compositions comprising ethephon and saflufenacil or cyclanilide and saflufenacil” (priority 2012, published 2013)

Experiments:
soybean variety Maxi = experiment: Greenhouse trial for desiccation in soybean; type: in vivo; details: foliar spray 100 L/ha, three days after application
Description: (§1) The trial was established under greenhouse conditions. The objective was to evaluate the dessication activity of saflufenacil solo and in mixture with cyclanilide and ethephon.
(§2) The plants (soybean variety Maxi, cotton Variety Oxford) were sown (Dec. 3, 2012) in pots with 8.5 cm of diameter using standard soil from Limburgerhof, Palatinate, Germany, emerging after 3 days, maintained during the entire growth period at temperatures of about 20 to 24° C., relative humidity of about 65 to 70%, watering in the afternoon or in the morning. Each treatment was composed by 4 replications (one plant per pot).
(§3) Foliar treatments were applied 51 days after sowing (Jan. 23, 2013) in a spray cabin with one Flat fan nozzle, using 100 L/ha as application volume. The spray solutions were prepared according to the given concentration of Tables 1 and 2 and contained in addition to the formulations used a surfactant (DASH HC, BASF S.A., Brazil; EC formulation based on methyl esters) at 0,5% (v/v).
(§4) Saflufenacil (70% (w/w), WG formulation; Sharpen® BASF Corporation, USA)
(§5) Ethephon (480 g/L, SL formulation)
(§6) Cyclanilide, (300 g/kg, WP formulation)
(§7) Assessments were made at three days after applicaton in soybean and seven days after application in cotton by evaluating percentage of symptoms of damage to the crop, mainly chlorosis and necrosis.

cotton Variety Oxford = experiment: Greenhouse trial for desiccation in cotton; type: in vivo; details: foliar spray 100 L/ha, seven days after application
Description: as §1, §2, §3, §4, §5, §6, §7

[1] = 1.5 g of a.i. per 100 L, percentage of symptoms of damage
[2] = 20 g of a.i. per 100 L, percentage of symptoms of damage
[3] = 1.4 g of a.i. per 100 L, percentage of symptoms of damage (chlorosis and necrosis)

SMILES: O=C(O)C1(C(=O)Nc2ccc(Cl)cc2Cl)CC1 [Cyclanilide]
- Observed activity (%) (soybean variety Maxi; [1]): 0%
- Observed activity (%) (cotton Variety Oxford; [1]): 0%

SMILES: O=P(O)(O)CCCl [Ethephon]
- Observed activity (%) (soybean variety Maxi; [2]): 0%
- Observed activity (%) (cotton Variety Oxford; [2]): 0%

SMILES: CC(C)N(C)S(=O)(=O)NC(=O)c1cc(-n2c(=O)cc(C(F)(F)F)n(C)c2=O)c(F)cc1Cl [Saflufenacil]
- Observed activity (%) (soybean variety Maxi; [3]): 15%
- Observed activity (%) (cotton Variety Oxford; [3]): 18.8%
